The results in this text go back to ChEMBL document CHEMBL1201862, “PubChem BioAssay data set” (2004).

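Interpolation was linear, between the two tested concentrations surrounding the appropriate level; five concentrations were tested over 48 hours in 96-well plates. Here, GI50 denotes the concentration required for 50% inhibition of growth.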 Calls of active or inactive are those of the source. Cut-off read from the data, not from the text of the source: active = GI50 up to about 1.1 µM and inactive = higher.

Some test systems named below: 786-0; CCRF-CEM; HCC 2998; HCT-15; HL-60; HOP-92; KM12; LOX IMVI; M14; MCF7; MOLT-4; Malme-3M; NCI-H460; NCI/ADR-RES; SF-295; SF-539; SK-MEL-5; SNB-19; SNB-75; TK-10.
Holding throughout (test): growth of human tumour cells (NCI), 48 h

As to `COc1ccc(NS(=O)(=O)c2ccc(NC(NC(=O)CC(C)C)(C(F)(F)F)C(F)(F)F)cc2)nn1`, the GI50 with 786-0 was > 100 µM (inactive); in the experiment with CCRF-CEM, > 100 µM (inactive); in the experiment on HCC 2998, > 100 µM (inactive); with HCT-15, over 100 µM; with HL-60, > 100 µM (inactive); in the experiment with HOP-92, > 100 µM (inactive). The GI50 with KM12, in the experiment with LOX IMVI, with M14, with MCF7, in the experiment on MOLT-4 and in the experiment with Malme-3M was > 100 µM (inactive) in each case. Further, the GI50 with NCI-H460, in the experiment with NCI/ADR-RES, with SF-295, with SF-539, with SK-MEL-5 and in the experiment with SNB-19 was > 100 µM (inactive) throughout. Also, the GI50 with SNB-75 and in the experiment with TK-10 was > 100 µM (inactive) in each case.
In the case of `COc1ccc(C(SCCO)(c2ccccc2)c2ccccc2)cc1`, the GI50 in the experiment on 786-0 was 12.5 µM (inactive); in the experiment on CCRF-CEM, 15.5 µM (inactive); in the experiment on HCC 2998, 16.4 µM (inactive); in the experiment with HCT-15, 11.9 µM; with HL-60, 22.8 µM (inactive); in the experiment with HOP-92, 11 µM (inactive). For the same compound, the GI50 is 14.1 µM (inactive) in the experiment on KM12; 18.1 µM (inactive) in the experiment on LOX IMVI; 7.08 µM (inactive) with M14; 10.5 µM (inactive) in the experiment with MCF7; 15.7 µM (inactive) in the experiment on MOLT-4; 18.9 µM (inactive) with Malme-3M. The GI50 was 13.3 µM (inactive) in the experiment on NCI-H460; 14.8 µM (inactive) with NCI/ADR-RES; 13.4 µM (inactive) in the experiment on SF-295; 15.6 µM (inactive) in the experiment on SF-539; 10.1 µM (inactive) in the experiment on SK-MEL-5; 15.7 µM (inactive) with SNB-19. The GI50 with SNB-75 is 12.2 µM (inactive); with TK-10, 18.8 µM (inactive).
For `O=C(O)CCC(NC(=O)/C(=C/c1ccccc1)NC(=O)c1ccccc1)C(=O)O` (centres undefined), the GI50 was > 100 µM (inactive) in the experiment on 786-0; > 100 µM (inactive) in the experiment on CCRF-CEM; > 100 µM (inactive) with HCC 2998; over 100 µM with HCT-15; > 100 µM (inactive) in the experiment on HL-60; > 100 µM (inactive) in the experiment with HOP-92. The GI50 in the experiment with KM12, with LOX IMVI, in the experiment on M14, in the experiment with MCF7, with MOLT-4 and in the experiment on Malme-3M was > 100 µM (inactive) throughout. Also, the GI50 in the experiment on NCI-H460, in the experiment with NCI/ADR-RES, with SF-295, with SF-539, with SK-MEL-5 and in the experiment with SNB-19 was > 100 µM (inactive) in each case. Also, the GI50 with SNB-75 and in the experiment on TK-10 was > 100 µM (inactive) each time.
`COc1cc2c(cc1C)NC(=O)/C2=C/c1c(Cl)[nH]c2cc(C)c(OC)cc12`: the GI50 in the experiment on 786-0 is 3.23 µM (inactive); with CCRF-CEM, 0.458 µM (active); in the experiment on HCC 2998, 4.11 µM (inactive); in the experiment with HCT-15, 3.72 µM; with HL-60, 0.187 µM (active); in the experiment with HOP-92, 10.3 µM (inactive). The GI50 in the experiment on KM12 is 4.22 µM (inactive); in the experiment on LOX IMVI it was 2.42 µM (inactive); in the experiment on M14, 2.15 µM (inactive); with MCF7, 1.4 µM (inactive); in the experiment with MOLT-4 it was 1.45 µM (inactive); in the experiment on Malme-3M it was 11.5 µM (inactive). For the same compound, the GI50 was 0.774 µM (active) in the experiment with NCI-H460; 3.19 µM (inactive) with NCI/ADR-RES; 1.21 µM (inactive) in the experiment on SF-295; 0.395 µM (active) in the experiment on SF-539; 2.62 µM (inactive) with SK-MEL-5; 4.63 µM (inactive) in the experiment with SNB-19. In addition, the GI50 in the experiment on SNB-75 is 2.34 µM (inactive); in the experiment on TK-10, 7.1 µM (inactive).
Take `Cc1cc(C)c2c(O)cc(-c3ccc(Cl)cc3)nc2n1`: the GI50 is > 46.5 µM (inactive) with 786-0; 69.3 µM (inactive) in the experiment on CCRF-CEM; 27.6 µM (inactive) in the experiment on HCC 2998; 21.9 µM in the experiment with HCT-15; 23.1 µM (inactive) with HL-60; 9.27 µM (inactive) with HOP-92. The GI50 is 16.3 µM (inactive) with KM12; 35.5 µM (inactive) in the experiment with LOX IMVI; 25.7 µM (inactive) in the experiment with M14; 27.2 µM (inactive) with MCF7; 22.5 µM (inactive) in the experiment with MOLT-4; 30.8 µM (inactive) in the experiment on Malme-3M. The GI50 in the experiment on NCI-H460 was 25.8 µM (inactive); with NCI/ADR-RES it was > 31.8 µM (inactive); in the experiment on SF-295, 28.2 µM (inactive); in the experiment on SF-539, > 100 µM (inactive); in the experiment with SK-MEL-5, 17.1 µM (inactive); with SNB-19, 94 µM (inactive). For the same compound, the figures for the GI50 in the experiment with SNB-75 and with TK-10 were 33.2 µM (inactive) and > 100 µM (inactive), respectively.
On to `CCC(NC(C)c1ccccc1)C(O)c1ccc(OCc2ccccc2)c(OCc2ccccc2)c1` (centres undefined), for which the GI50 with 786-0 is 13.5 µM (inactive); with CCRF-CEM it was 14.2 µM (inactive); in the experiment on HCC 2998, 2.37 µM (inactive); with HCT-15 it was 14.5 µM; in the experiment with HL-60 it was 13.8 µM (inactive); in the experiment with HOP-92, 5.74 µM (inactive). Also, the GI50 is 5.81 µM (inactive) in the experiment on KM12; 12.1 µM (inactive) in the experiment on LOX IMVI; 4.86 µM (inactive) with M14; 14.3 µM (inactive) in the experiment with MCF7; 14.8 µM (inactive) with MOLT-4; 14.6 µM (inactive) in the experiment with Malme-3M. Besides, the GI50 was 15.1 µM (inactive) with NCI-H460; 15.8 µM (inactive) with NCI/ADR-RES; 20.4 µM (inactive) in the experiment on SF-295; 16.8 µM (inactive) with SF-539; 4.45 µM (inactive) in the experiment on SK-MEL-5; 14.5 µM (inactive) in the experiment on SNB-19. Further, the GI50 in the experiment with SNB-75 is 10.6 µM (inactive); in the experiment with TK-10 it was 17.8 µM (inactive).
As for `CCOC(=O)C1(Cc2ccccc2)Cc2ccccc2C1=O` (centres undefined), the GI50 in the experiment with 786-0 was 32.5 µM (inactive); in the experiment with CCRF-CEM, 27.8 µM (inactive); with HCC 2998 it was 34.4 µM (inactive); with HCT-15, 30.9 µM; in the experiment with HL-60, 19.1 µM (inactive); with HOP-92, 16.5 µM (inactive). For the same compound, the GI50 was 26.6 µM (inactive) in the experiment on KM12; 24.1 µM (inactive) with LOX IMVI; 16.6 µM (inactive) with M14; 33.8 µM (inactive) in the experiment with MCF7; 19.6 µM (inactive) with MOLT-4; 18.7 µM (inactive) in the experiment with Malme-3M. In addition, the GI50 in the experiment on NCI-H460 is 27.2 µM (inactive); in the experiment on NCI/ADR-RES it was 21.9 µM (inactive); in the experiment with SF-295, 37.1 µM (inactive); in the experiment on SF-539, 35.1 µM (inactive); with SK-MEL-5, 15.1 µM (inactive); in the experiment with SNB-75, 25.4 µM (inactive). Further, the GI50 with TK-10 was 36.8 µM (inactive).
